# Data: patent US12697313B2, “Methods of treating anemia using formoterol or a pharmaceutically acceptable salt thereof” (Dana-Farber Cancer Institute, Inc., priority 2022, dated 2026)
# Entries after “also recorded” stand apart in the source; their conditions may differ.
# Legend:
# primary human HSPCs [1] = assay: Mitochondrial functions in primary human HSPCs (mtDNA genes, TMRE, MitoTracker); type: cell-based
# Procedure: (§1) Given the involvement of β2-AR in erythropoiesis, it was hypothesized that administration of long-acting selective β2-AR agonist FF might promote erythroid differentiation. To address this, primary human HSPCs were treated with varying doses of FF (Selleckchem). […] To ascertain if FF administration plays a role further upstream in the erythroid differentiation pathway, methylcellulose colony-formation assays were performed.
# TMRE (T669, Invitrogen) and Mitotracker® (M22426, Life Technologies) and MitoSox® (M36008, Life Technologies) staining were performed as per the manufacturer's instructions.
# APC KD HSPCs = assay: Erythropoiesis in APC knockdown HSPCs; type: cell-based, human; settings: FIG. 46
# Source text: Primary human HSPCs were genome-edited, as previously described (Ghosh, S., Raundhal, M., Myers, S. A., Carr, S. A., Chen, X., Petsko, G. A., and Glimcher, L. H. (2022). Identification of RIOK2 as a master regulator of human blood cell development. Nat Immunol 23, 109-121).
# [2] = test system: NUP98-HOXD13 transgenic mice; assay: FF i.p. in MDS/AML mice (NUP98-HOXD13 transgenic); type: in vivo; settings: 0.3 mg/kg thrice weekly i.p.
# Procedure: FIG. 71A, FIG. 71B and FIG. 71C show FF treatment at a low dose of 0.3 mg/kg thrice weekly (i.p.) alleviates RBC parameters in PB of MDS/AML mice, such as RBCs, hemoglobin (Hb) and hematocrit (HCT%). * p<0.05, ** p <0.01, **** p<0.0001, ANOVA. n=5-7 mice per group. Veh: vehicle; LC: littermate control.
# [3] = test system: PHZ-induced lethal hemolytic anemia mice; assay: PHZ-mediated lethal hemolytic anemia, FF i.p.; type: in vivo; settings: for body weights: 0.1/0.3 mg/kg
# Procedure: To this end, 10-12 week old male C57BL/6J mice were first treated with a single lethal dose of 150 mg/kg PHZ followed by daily i.p. injections of either vehicle or 0.1/0.3 mg/kg FF. […] All control mice (n=5) were moribund and died by 3 days of lethal PHZ dose, whereas 3-4 mice in 0.1/0.3 mg/kg FF treatment groups are still surviving post 2 weeks of lethal dose (FIG. 42A). […] FF injections were stopped after 7 days of lethal PHZ treatment and it was observed that the body weights of mice were held steady (FIG. 42B). The body weights and survival of these mice are being monitored daily. This unexpected finding prompted us to repeat this lethal hemolytic anemia model in the female mice. […] The FF treatment lasted for 7 days after lethal PHZ dose and the body weights and survival of these mice are being monitored daily.
# [4] = test system: phenylhydrazine (PHZ)-mediated stress-induced anemic mice; assay: Sublethal PHZ (60 mg/kg)-induced hemolytic anemia, male mice, FF i.p.; type: in vivo
# primary human HSPCs [5] = assay: Methylcellulose colony-formation assay, primary human HSPCs; type: cell-based; settings: n=4 healthy donors; vs DMSO; FIG. 4
# Procedure: as §1
# After genome editing, primary human HSPCs were washed twice with 1× PBS and mixed with semi-solid methylcellulose medium (H4034 StemCell Technologies) by brief vortexing. Cells were plated at a density of 2000 per well in a 6-well plate followed by incubation in a humidified chamber at 37° C. for 14 days. Imaging of the colonies was performed using EVOS M5000 Imaging system® (ThermoFisher Scientific). The colony-forming cells were then collected by triturating the wells using staining buffer and multi-color flow cytometry was performed as previously described (Li et al. (2014) Blood 124: 3636-3645).
# primary human HSPCs [6] = assay: Erythroid differentiation liquid culture of primary human HSPCs, flow cytometry; type: cell-based
# Procedure: To address this, primary human HSPCs were treated with varying doses of FF (Selleckchem). […] To ascertain if FF administration plays a role further upstream in the erythroid differentiation pathway, methylcellulose colony-formation assays were performed.
# CD34+ primary human hematopoietic stem and progenitor cells (HSPCs) were obtained from Fred-Hutchinson Cancer Research center, Seattle, USA and cultured, as previously described. Formoterol fumarate was purchased from Selleckchem (#S2020) and Sigma (#F9552), dissolved (in DMSO) and stored as per manufacturer's instructions, and used at the final working concentrations as indicated.
# [7] = test system: ovariectomized rat models; settings: ovariectomized rat models (Kellenberger et al. 1998); cited from earlier work
# wild-type C57BL/6J mice = assay: FF daily i.p. in wild-type mice at steady-state (pilot study); type: in vivo
# Procedure: The murine β2-adrenoreceptor has 87.08% similarity to the protein composition of the human analog. This encouraged further testing to determine whether formoterol fumarate (FF) treatment in wild-type mice under steady state or hemolytic anemia produces any alleviating effect in vivo. To address this, varying doses of FF 0.1-0.3-0.5-1.0 mg/kg or vehicle (0.3% DMSO in saline) were administered via intraperitoneal (i.p.) injection in 10-12 week old wild-type C57BL/6J mice daily for 3 weeks along with weekly submandibular cheek bleeding to analyze complete blood counts (CBC).
# C57BL/6J mice were obtained from Jackson laboratories and were housed for at least 2 weeks at the Dana-Farber Cancer Institute (DFCI) animal resources facility before beginning experiments. All drug treatments have been mentioned in detail in the text.
# [8] = female, PHZ 120 mg/kg, FF 0.1 mg/kg, n=5
# [9] = female, PHZ 120 mg/kg, FF 0.3 mg/kg, n=5
# [10] = male, PHZ 150 mg/kg, FF 0.1 mg/kg, n=5
# [11] = male, PHZ 150 mg/kg, FF 0.3 mg/kg, n=5
# [12] = 0.1/0.3 mg/kg, PHZ 60 mg/kg, FIG. 26
smiles,measurement,setting,value
"COc1ccc(C[C@@H](C)NC[C@H](O)c2ccc(O)c(NC=O)c2)cc1.O=C(O)/C=C/C(=O)O [FF, (E)-but-2-enedioic acid;N-[2-hydroxy-5-[(1R)-1-hydroxy-2-[[(2R)-1-(4-methoxyphenyl)propan-2-yl]amino]ethyl]phenyl]formamide]",mitochondrial membrane potential (TMRE staining),primary human HSPCs [1]; FIG. 5B,elevated mitochondrial mass and membrane potential; also recorded: enhances mitochondrial membrane potential
same,mitochondrial mass (MitoTracker staining),primary human HSPCs [1]; FIG. 5C,elevated mitochondrial mass and membrane potential; also recorded: increases mitochondrial mass
same,"expression of mitochondrial DNA encoded genes MT-ND1, MT-CytB, MT-CO1, MT-ATP6","primary human HSPCs [1]; vs DMSO, FIG. 5A",enhanced expression of mtDNA encoded genes required for OXPHOS; also recorded: enhances expression of mitochondrial DNA encoded genes
same,erythropoiesis,APC KD HSPCs,moderately rescues erythropoiesis
same,"RBC parameters (RBCs, Hb, HCT%) in PB",[2]; FIG. 71,elevates RBC parameters
same,platelets and WBCs in peripheral blood,[2]; FIG. 72A-72B,has no impact
same,apoptosis (Annexin V staining) in the bone marrow,[2]; FIG. 72C,has no impact
same,erythroid progenitors in the BM,[2]; FIG. 73A,elevates erythroid progenitors
same,GMP and MkP in the BM,[2]; FIG. 73B-73C,does not affect
same,survival (Kaplan-Meier),"[3]; female mice, PHZ 120 mg/kg, FF 0.1/0.3 mg/kg, FIG. 42C",provided prominent survival benefits
same,body weights,"[3]; female, PHZ 120 mg/kg, FIG. 42D",similarly revived body weights; also recorded: steadily increases body weights of female mice
same,mice died on day 2,[3]; [8],1 mouse
same,mice still surviving post lethal PHZ dose,[3]; [8],4 mice
same,mice died on day 2,[3]; [9],2 mice
same,mice still surviving post lethal PHZ dose,[3]; [9],3 mice
same,survival (Kaplan-Meier),"[3]; male mice, PHZ 150 mg/kg, FF 0.1/0.3 mg/kg daily i.p., FIG. 42A",produced striking survival benefits
same,mice still surviving post 2 weeks of lethal dose,"[3]; male, PHZ 150 mg/kg, 0.1/0.3 mg/kg FF groups, n=5",3-4 mice
same,body weights,"[3]; male, PHZ 150 mg/kg, FIG. 42B",produced remarkable revival in body weights; also recorded: steadily increases body weights of male mice
same,mice died on day 2,[3]; [10],2 mice
same,mice still surviving post lethal PHZ dose,[3]; [10],3 mice
same,mice died on day 2,[3]; [11],1 mouse
same,mice still surviving post lethal PHZ dose,[3]; [11],4 mice
same,body weights (absolute and % change),"[4]; 0.1/0.3 mg/kg i.p., PHZ 60 mg/kg, male, FIG. 22A",marked revival was similarly observed in body weights; also recorded: increases absolute body weights and % change in body weights
same,viability of BM cells,"[4]; 0.1/0.3 mg/kg, PHZ 60 mg/kg, FIG. 23A",marked increase in viability; also recorded: substantially increases viability
same,common myeloid progenitors (CMP) and granulocyte monocyte progenitors (GMP) in BM,[4]; [12],not affected
same,megakaryocyte erythroid progenitors (MEP) in BM,[4]; [12],specifically boosted megakaryocyte erythroid progenitors (MEP); also recorded: substantially increases MEP
same,megakaryocytic progenitors (MkP) in BM,"[4]; 0.1/0.3 mg/kg, PHZ 60 mg/kg, FIG. 27",no stark differences were observed in megakaryocytic progenitors; also recorded: does not affect megakaryocytic progenitors
same,mitochondrial mass in PBMCs (MitoTracker staining),"[4]; Day 4 after PHZ treatment, FIG. 21",increases MitoTracker® Staining
same,mitochondrial biogenesis in BM cells (MitoTracker staining),[4]; FIG. 23B,elevated mitochondrial biogenesis; also recorded: enhances mitochondrial biogenesis
same,mitochondrial superoxide production in BM cells (MitoSox staining),[4]; FIG. 23C,reduced mitochondrial superoxide production; also recorded: significantly reduces mitochondrial superoxide production
same,LS-K cells in the bone marrow,[4]; FIG. 25,enhances LS-K cells
same,Pre-CFU-E cells in the BM,[4]; FIG. 28,selectively enhances Pre-CFU-E cells
same,pro-erythroblasts in the BM,[4]; FIG. 29,selectively enhances pro-erythroblasts
same,granulocytic myeloid progenitors (GMP) in bone marrow,"[4]; FIG. 41, study not stated in legend",does not affect granulocytic myeloid progenitors (GMP)
same,"RBC parameters (Hb, HCT %, RBC numbers) in peripheral blood","[4]; PHZ 60 mg/kg, FIG. 22B",consistently improved RBC parameters; also recorded: significantly enhances and sustains RBC parameters
same,platelet counts,"[4]; PHZ 60 mg/kg, FIG. 22C",no long term impact was observed in the WBC parameters or platelets; also recorded: not statistically significant
same,WBC and monocyte counts,"[4]; day 4 and over 14 days, PHZ 60 mg/kg, FIG. 22C",no long term impact was observed in the WBC parameters or platelets; also recorded: increases WBC and monocyte counts in the peripheral blood after 4 days of daily i.p. injections but does not sustain the impact over 14 days
same,BFU-E and CFU-E formation,primary human HSPCs [5],significantly increased blast-forming unit-erythroid (BFU-E) and colony-forming unit-erythroid (CFU-E) formation; also recorded: enhances blast forming unit-erythroid (BFU-E) and colony forming unit-erythroid (CFU-E) formation
same,erythroid differentiation (CD235a),"primary human HSPCs [6]; 1/5 μM, n=5 healthy donors, FIG. 2",induces erythroid differentiation (CD235a) dose-dependently
same,megakaryocytic differentiation (CD41/61),"primary human HSPCs [6]; 1/5 μM, n=5 healthy donors, FIG. 12",does not influence megakaryocytic differentiation (CD41/61)
same,erythroid differentiation,"primary human HSPCs [6]; FF from Selleckchem and Sigma, n=4 healthy donors, FIG. 3A-3B",similarly enhanced erythroid differentiation; also recorded: enhances erythroid differentiation
same,erythroid differentiation,"primary human HSPCs [6]; control (RIOK2-proficient) HSPCs, FIG. 6B",consistently enhanced erythroid differentiation in the control HSPCs
same,erythroid differentiation (CD235a),"primary human HSPCs [6]; varying doses FF (Selleckchem) vs 0 μM DMSO, n=3 healthy donors, FIG. 1A",elevated erythroid differentiation in primary human HSPCs in a dose-dependent manner; also recorded: enhances erythroid differentiation (CD235a) dose-dependently
same,viability,"primary human HSPCs [6]; varying doses FF vs DMSO, FIG. 1B","without affecting viability, megakaryopoiesis or myelopoiesis; also recorded: does not affect viability"
same,megakaryocytic (CD41-61) differentiation,"primary human HSPCs [6]; varying doses FF vs DMSO, FIG. 1C","without affecting viability, megakaryopoiesis or myelopoiesis; also recorded: does not affect"
same,myeloid (CD11b) differentiation,"primary human HSPCs [6]; varying doses FF vs DMSO, FIG. 1D","without affecting viability, megakaryopoiesis or myelopoiesis; also recorded: does not affect"
same,effects on bone,[7],anabolic effects on bone
same,body weights,"wild-type C57BL/6J mice; 0.3-0.5 and 1.0 mg/kg daily i.p., FIG. 14A","mildly increased body weights of mice, but the values did not reach significance"
same,"RBC parameters (RBC numbers, HCT %, Hb) in peripheral blood","wild-type C57BL/6J mice; 14 days of daily i.p., FIG. 14C-14E",slightly elevated; also recorded: mildly increases RBC parameters
same,WBC and monocyte counts in peripheral blood,"wild-type C57BL/6J mice; 14 days of daily i.p., FIG. 14F-14G",remained marginally affected; also recorded: does not affect white blood cell (WBC) or monocyte counts
same,mitochondrial biogenesis in PBMCs (MitoTracker staining),"wild-type C57BL/6J mice; all doses, day 14 of daily i.p., FIG. 14B",significantly enhanced mitochondrial biogenesis; also recorded: enhances mitochondrial biogenesis
same,"tolerability (body weights, mobility, activeness, breathing patterns)",wild-type C57BL/6J mice; daily i.p. 0.1-0.3-0.5-1.0 mg/kg,well-tolerated
